Patent publication US20260165936A1, “BIO-BASED SURFACTANT COMPOSITION FOR REDUCTION OF MULTISPECIES BIOFILM FORMATION IN ORAL CAVITY” (SKYLAB AG, priority 2023, published 2026)

Legend:
dental plaque = settings: second-generation anti-plaque agent; cited from earlier work
[1] = system: dental plaque (biofilm) grown from fresh human saliva; assay: Inhibition of biofilm formation on rough glass rods (biofilm dry weight); format: cell-based; settings: for Average biofilm weight: biofilm grown 3 days on rough glass rods in human saliva, dry weight; for Biofilm inhibitory effect of the individual component alone compared to the control (in words): individual component without its partner, FIG. 2
Procedure: The aqueous solutions of sodium lauroyl sarcosinate, biosurfactant rhamnolipid and the mixture thereof at various concentrations were tested for inhibition of biofilm formation on the surface of rough glass rods. The test sample of the raw material contained sodium lauroyl sarcosinate at the level of 35%. The test sample of the raw material contained rhamnolipid at the level of 40%. Sterile water was used as a negative control, and the mouthwash Corsodyl, containing 0.2% chlorhexidine was used as a positive control. Dry biofilm mass was weighted to determine the amount of formed dental plaque. The dental plaque was grown for 3 days by immersion of rough glass rods into the fresh human saliva containing 0.1% saccharose. […] On Day 1 one treatment of the glass rods with the test component solutions, and on Days 2 and 3 two treatments of the glass rods with the test component solutions were made. At the end of Day 3 the biofilm was collected from the glass rods, and the plaque amount by dry weight (g) was determined. Lesser weight indicated higher efficacy against the dental plaque. Sterilized rods were fixed in the holders in the microbiological cabinet. Since that moment the rods and the holders were used as the integral units. On Day 1 the sterile glass rods were pre-treated for 2 minutes with the test component solutions taken in the amount of 5 mL. Then the glass rods were removed, washed in 5 mL of the sterile distilled water and immersed into 5 mL of saliva containing 0.1% saccharose. The tubes were placed into the rack and then into the incubator (t=37° C.) and on shaker (250 rpm) for about 18 hours. On Days 2 and 3 in the morning the rods were treated with the test component solutions, then placed into nutritive broth and returned into the incubator and on shaker. After 6 h incubation in the broth the rods were treated with the test component solution once again and transferred into the saliva with 0.1% glucose, and then returned into the incubator for 18 hours. On Day 4 the tubes with the rods were removed from the incubator and used for determination of the biofilm dry weight. For this purpose, the rods were dried and then weighted on analytical balance with the accuracy of 4 decimal places. The biofilm was removed after the rehydration, and the rods were weighted once again. The biofilm dry weight was determined from the equation: [formula]

| Molecule | Removal of dental plaque (dental plaque) | Average biofilm weight ([1]; aqueous solution 0.01%) | Biofilm inhibitory effect of the individual component alone compared to the control (in words) [1] | Dose dependence of dental plaque weight (in words) ([1]; 0.2 and 2% aqueous solutions, 10-fold increase in concentration) | Average biofilm weight ([1]; aqueous solution 0.2%) | Average biofilm weight ([1]; aqueous solution 2%) |
| --- | --- | --- | --- | --- | --- | --- |
| [H]/N=C(\N/C(=N/[H])NCCCCCCNC(=N)NC(=N)Nc1ccc(Cl)cc1)Nc1ccc(Cl)cc1 [chlorohexidine] | 70-90% | – | – | – | – | – |
| rhamnolipid [Biosurfactant rhamnolipid] | – | 0.0026 g | do not provide for any biofilm inhibitory effect compared to the control | – | – | – |
| sodium lauroyl sarcosinate | – | – | do not provide for any biofilm inhibitory effect compared to the control | absence of obvious dose-dependent effect | 0.0022 g | 0.0020 g |
